Data on two compounds can be found in patent publication US7776859B2, “Hexahydroimidazopyrazin-3-one compounds useful as modulators of androgen receptor function” (Bristol-Myers Squibb Company, priority 2005, dated 2010).

Test [1] relates to wild type AR (MDA 453 cells). Particulars: read-out: Kd for [3H]-DHT; MDA 453 cells (wild type AR), Scatchard analysis of specific binding. On the procedure:
For the saturation analysis, the difference between the total binding and the non-specific binding, is defined as specific binding.
Two replicates are used for each sample. After 4 hours at 37° C., cells are washed, harvested, and counted as described above. […] The K1 values are determined by application of the Cheng-Prusoff equation to the IC50 values, where:
[formula] After correcting for non-specific binding, IC50 values are determined.

The target of the next test is T1, AR (Rattus norvegicus, UniProt P15207).
T1 sequence (P15207 1-902): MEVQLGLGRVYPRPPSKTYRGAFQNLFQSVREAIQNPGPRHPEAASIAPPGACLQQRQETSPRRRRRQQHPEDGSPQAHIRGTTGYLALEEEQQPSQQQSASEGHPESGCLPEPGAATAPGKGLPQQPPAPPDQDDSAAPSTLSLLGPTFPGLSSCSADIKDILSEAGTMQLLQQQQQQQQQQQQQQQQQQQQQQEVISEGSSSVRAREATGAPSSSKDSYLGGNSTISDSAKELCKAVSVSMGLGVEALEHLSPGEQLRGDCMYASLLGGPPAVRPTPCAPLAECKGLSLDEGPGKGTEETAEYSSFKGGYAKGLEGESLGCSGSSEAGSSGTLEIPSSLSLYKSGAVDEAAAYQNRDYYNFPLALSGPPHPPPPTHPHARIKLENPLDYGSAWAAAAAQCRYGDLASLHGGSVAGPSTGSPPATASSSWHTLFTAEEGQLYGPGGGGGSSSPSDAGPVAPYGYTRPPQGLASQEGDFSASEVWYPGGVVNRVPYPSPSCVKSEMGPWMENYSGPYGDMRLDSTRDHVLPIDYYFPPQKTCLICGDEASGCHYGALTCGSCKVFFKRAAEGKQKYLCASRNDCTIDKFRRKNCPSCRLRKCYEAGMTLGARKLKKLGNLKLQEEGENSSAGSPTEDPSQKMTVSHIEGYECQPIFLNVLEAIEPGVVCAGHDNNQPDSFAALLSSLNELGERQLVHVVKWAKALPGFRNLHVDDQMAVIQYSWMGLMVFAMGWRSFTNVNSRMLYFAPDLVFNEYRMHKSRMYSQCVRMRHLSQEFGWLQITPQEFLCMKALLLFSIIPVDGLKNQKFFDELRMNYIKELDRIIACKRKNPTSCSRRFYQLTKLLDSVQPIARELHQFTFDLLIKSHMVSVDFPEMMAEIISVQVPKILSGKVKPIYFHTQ

For “tritiated dihydrotestosterone [[^3H]-DHT]”, in test [1], the Kd (as a rule, the constant that tells how readily two partners part at equilibrium) came out at 0.7 nM.

`CCC(=O)O[C@H]1CC[C@H]2[C@@H]3CCC4=CC(=O)CC[C@]4(C)[C@H]3CC[C@]12C` [TP, testosterone propionate]: the “potency relative to free T” value at AR (TP versus free T, organ weight increase) was 10-30 fold. In addition, the “EC50 (increase in organ weight, VP and SV)” value at AR (immature castrated rats, dosed for 3 days) is on record as around 0.03 mg.
